For eight compounds, Activity and IC50 results are on record in ChEMBL document CHEMBL2157994, “Synthesis and in vitro and in vivo anticancer activity of novel 3-methyl-5H-isoxazolo[5',4':5,6]pyrido[2,3-b]indoles” (Bioorg Med Chem Lett, 2012).

In general, IC50 refers to the concentration at which inhibition is half-maximal.

A short description of data set [1]: Antitumor activity against mouse EAC cells xenografted in Swiss albino mouse assessed as non-viable tumor cells at 5 mg/kg/day, ip administered for 9 days measured on day 14 by trypan blue exclusion assay (reference value: 1.02 +/- 0.09 /ml). It counts as functional, Ehrlich. The settings on record: route intraperitoneal.
The subject of the next data set is MCF7. Briefly: Cytotoxicity against human MCF7 cells after 48 hrs by MTT assay. Type of data set: functional, cell-based. Conditions: MCF7, 48 h. A general note: Formazan colour is commonly taken as a measure of viable cells.
A short description of data set [2]: Antitumor activity against mouse EAC cells xenografted in Swiss albino mouse assessed as viable tumor cells at 5 mg/kg/day, ip administered for 9 days measured on day 14 by trypan blue exclusion assay (reference value: 7 +/- 0.43 /ml). It counts as functional, Ehrlich. Conditions: route intraperitoneal.
Data set [3] is described as follows: Antitumor activity against mouse EAC cells xenografted in Swiss albino mouse assessed as packed cell volume at 10 mg/kg/day, ip administered for 9 days measured on day 14 (reference value: 2.2 +/- 0.26 mL). Type of data set: functional, Ehrlich. The settings on record: route intraperitoneal.
For the next data set, the system named is HeLa. Briefly: Cytotoxicity against human HeLa cells after 48 hrs by MTT assay. It counts as functional, cell-based.
Data set [4] is described as follows: Antitumor activity against mouse EAC cells xenografted in Swiss albino mouse assessed as tumor volume at 5 mg/kg/day, ip administered for 9 days measured on day 14 (reference value: 3.53 +/- 0.85 mL). Type of data set: functional, Ehrlich. Conditions: route intraperitoneal.
For data set [5], the system named is Mus musculus. Briefly: Hepatoprotective activity in Swiss albino mouse xenografted with mouse EAC cells assessed as SGOT level at 5 mg/kg/day, ip administered for 9 days measured on day 14 (reference value: 112 +/- 1.42 IU/L). Type of data set: functional, Ehrlich. Conditions: route intraperitoneal.
Data set [6] concerns Mus musculus. Briefly: Toxicity in Swiss albino mouse xenografted with mouse EAC cells assessed as haemoglobin level at 10 mg/kg/day, ip administered for 9 days measured on day 14 (reference value: 5.54 +/- 0.734 g%). More on the design: route intraperitoneal. Conditions: in vivo, 216 h. It counts as organism-based, Ehrlich.
For data set [7], the system named is Mus musculus. Briefly: Hepatoprotective activity in Swiss albino mouse xenografted with mouse EAC cells assessed as SGOT level at 10 mg/kg/day, ip administered for 9 days measured on day 14 (reference value: 112 +/- 1.42 IU/L). The settings on record: route intraperitoneal. It counts as functional, Ehrlich.
The nature of data set [8]: Antitumor activity against mouse EAC cells xenografted in Swiss albino mouse assessed as increase in life span at 5 mg/kg/day, ip administered for 9 days relative to vehicle-treated control. It counts as functional, Ehrlich. Conditions: route intraperitoneal.
A short description of data set [9]: Antitumor activity against mouse EAC cells xenografted in Swiss albino mouse assessed as non-viable tumor cells at 10 mg/kg/day, ip administered for 9 days measured on day 14 by trypan blue exclusion assay (reference value: 1.02 +/- 0.09 /ml). It counts as functional, Ehrlich. Conditions: route intraperitoneal.
In data set [10] the test system is Mus musculus. Briefly: Toxicity in Swiss albino mouse xenografted with mouse EAC cells assessed as RBC level at 5 mg/kg/day, ip administered for 9 days measured on day 14 (reference value: 2.36 +/- 0.13 million/mm3). The settings on record: in vivo, 216 h. It counts as organism-based, Ehrlich. More on the design: route intraperitoneal.
For data set [11], the system named is Mus musculus. Briefly: Toxicity in Swiss albino mouse xenografted with mouse EAC cells assessed as body weight at 5 mg/kg/day, ip administered for 9 days measured on day 14 (reference value: 13.57 +/- 0.8 g). It counts as organism-based, Ehrlich. More on the design: route intraperitoneal. The settings on record: in vivo, 216 h.
The subject of a further data set is Ehrlich. Briefly: Anticancer activity against mouse EAC cells xenografted in Swiss albino mouse assessed as decrease in ascitic fluid volume relative to tumor control. It counts as functional.
The test system of a further data set is NCI-H460. Briefly: Cytotoxicity against human NCI-H460 cells after 48 hrs by MTT assay. Type of data set: functional, cell-based. The settings on record: NCI-H460, 48 h.
Data set [12] deals with Mus musculus. Briefly: Toxicity in Swiss albino mouse xenografted with mouse EAC cells assessed as body weight at 10 mg/kg/day, ip administered for 9 days measured on day 14 (reference value: 13.57 +/- 0.8 g). Type of data set: organism-based, Ehrlich. More on the design: route intraperitoneal. The settings on record: in vivo, 216 h.
The nature of data set [13]: Antitumor activity against mouse EAC cells xenografted in Swiss albino mouse assessed as increase in life span at 10 mg/kg/day, ip administered for 9 days relative to vehicle-treated control. The settings on record: route intraperitoneal. It counts as functional, Ehrlich.
The test system of data set [14] is Mus musculus. Briefly: Toxicity in Swiss albino mouse xenografted with mouse EAC cells assessed as RBC level at 10 mg/kg/day, ip administered for 9 days measured on day 14 (reference value: 2.36 +/- 0.13 million/mm3). Conditions: in vivo, 216 h. Further details: route intraperitoneal. Type of data set: organism-based, Ehrlich.
Data set [15] concerns Mus musculus. Briefly: Toxicity in Swiss albino mouse xenografted with mouse EAC cells assessed as WBC level at 10 mg/kg/day, ip administered for 9 days measured on day 14 (reference value: 20.66 +/- 0.81 10^3/mm3). Type of data set: organism-based, Ehrlich. More on the design: route intraperitoneal. The settings on record: in vivo, 216 h.
Data set [16] can be described thus: Antitumor activity against mouse EAC cells xenografted in Swiss albino mouse assessed as packed cell volume at 5 mg/kg/day, ip administered for 9 days measured on day 14 (reference value: 2.2 +/- 0.26 mL). It counts as functional, Ehrlich. The settings on record: route intraperitoneal.
The nature of data set [17]: Antitumor activity against mouse EAC cells xenografted in Swiss albino mouse assessed as viable tumor cells at 10 mg/kg/day, ip administered for 9 days measured on day 14 by trypan blue exclusion assay (reference value: 7 +/- 0.43 /ml). It counts as functional, Ehrlich. The settings on record: route intraperitoneal.
Data set [18] in a line: Antitumor activity against mouse EAC cells xenografted in Swiss albino mouse assessed as tumor volume at 10 mg/kg/day, ip administered for 9 days measured on day 14 (reference value: 3.53 +/- 0.85 mL). Type of data set: functional, Ehrlich. Conditions: route intraperitoneal.
Data set [19] deals with Mus musculus. Briefly: Toxicity in Swiss albino mouse xenografted with mouse EAC cells assessed as WBC level at 5 mg/kg/day, ip administered for 9 days measured on day 14 (reference value: 20.66 +/- 0.81 10^3/mm3). It counts as organism-based, Ehrlich. Further details: route intraperitoneal. The settings on record: in vivo, 216 h.
For data set [20], the system named is Mus musculus. Briefly: Hepatoprotective activity in Swiss albino mouse xenografted with mouse EAC cells assessed as total protein level at 5 mg/kg/day, ip administered for 9 days measured on day 14 (reference value: 7.54 +/- 0.14 mg/dL). Type of data set: functional, Ehrlich. The settings on record: route intraperitoneal.
Data set [21] concerns Mus musculus. Briefly: Hepatoprotective activity in Swiss albino mouse xenografted with mouse EAC cells assessed as SGPT level at 10 mg/kg/day, ip administered for 9 days measured on day 14 (reference value: 57.84 +/- 0.3 IU/L). Type of data set: functional, Ehrlich. The settings on record: route intraperitoneal.
For data set [22], the system named is Mus musculus. Briefly: Toxicity in Swiss albino mouse xenografted with mouse EAC cells assessed as haemoglobin level at 5 mg/kg/day, ip administered for 9 days measured on day 14 (reference value: 5.54 +/- 0.734 g%). It counts as organism-based, Ehrlich. Further details: route intraperitoneal. The settings on record: in vivo, 216 h.
In data set [23] the test system is Mus musculus. Briefly: Hepatoprotective activity in Swiss albino mouse xenografted with mouse EAC cells assessed as total protein level at 10 mg/kg/day, ip administered for 9 days measured on day 14 (reference value: 7.54 +/- 0.14 mg/dL). Type of data set: functional, Ehrlich. Conditions: route intraperitoneal.
The test system of data set [24] is Mus musculus. Briefly: Hepatoprotective activity in Swiss albino mouse xenografted with mouse EAC cells assessed as SGPT level at 5 mg/kg/day, ip administered for 9 days measured on day 14 (reference value: 57.84 +/- 0.3 IU/L). It counts as functional, Ehrlich. The settings on record: route intraperitoneal.

≈ marks a conversion by molar mass, not a printed value. Calls of active or inactive are those of the source. No cut-off for these calls is given here.

Take `Cc1ccc2[nH]c3nc4c(C)noc4cc3c2c1`: the Activity in data set [1] was found to be 1.62 ×10⁷ /ml; in data set [2], 6.43 ×10⁷ /ml; in [3], 1.33 mL; in data set [4], 2.43 mL; with Mus musculus [5] it was 106.1 IU/L; in the data set with Mus musculus [6], 7.3 g%. In addition, the Activity with Mus musculus [7] was determined as 98.6 IU/L; in [8] it was 11.08%; in data set [9] it was 2.07 ×10⁷ /ml; in the data set with Mus musculus [10], 2.93 million/mm3; with Mus musculus [11], 11.23 g; in the data set on Mus musculus [12], 8.36 g. Further, the Activity came out at 44.4% in data set [13]; 3.66 million/mm3 with Mus musculus [14]; 16.58 ×10³ /mm3 in the data set with Mus musculus [15]; 1.8 mL in [16]; 5.2 ×10⁷ /ml in [17]; 1.63 mL in data set [18]. Further, the Activity in the data set on Mus musculus [19] came to 19.19 ×10³ /mm3; in the data set with Mus musculus [20], 7.18 mg/dL; in the data set with Mus musculus [21], 47.46 IU/L; with Mus musculus [22] it was 6.26 g%; with Mus musculus [23] it was 6.63 mg/dL; with Mus musculus [24], 54 IU/L. Further, the results for the half-maximal inhibitory concentration (IC50) in the data set with MCF7, with HeLa and in the data set on NCI-H460 were 18.8 µg/mL (≈ 79.3 µM), 19.7 µg/mL (≈ 83.1 µM) and 16.7 µg/mL (≈ 70.3 µM), respectively. Moreover, the result in the data set with Ehrlich was Active.
With `Cc1noc2cc3c(nc12)[nH]c1c(Cl)cccc13`, the IC50 amounted to 54.5 µg/mL (≈ 212 µM) with MCF7, 55.6 µg/mL (≈ 216 µM) in the data set on HeLa and 52.3 µg/mL (≈ 203 µM) in the data set on NCI-H460.
On to `Cc1noc2cc3c(nc12)[nH]c1c(C)cccc13`, for which the Activity came to 2.31 ×10⁷ /ml in [1]; 4.74 ×10⁷ /ml in [2]; 0.86 mL in data set [3]; 2.13 mL in data set [4]; 106.3 IU/L with Mus musculus [5]; 8.88 g% with Mus musculus [6]. Moreover, the Activity in the data set on Mus musculus [7] came out at 101.06 IU/L; in data set [8], 36.36%; in [9], 4.2 ×10⁷ /ml; in the data set on Mus musculus [10], 3.34 million/mm3; with Mus musculus [11] it was 9.76 g; with Mus musculus [12], 5.93 g. The Activity worked out at 75% in [13]; 4.14 million/mm3 in the data set on Mus musculus [14]; 15.25 ×10³ /mm3 in the data set on Mus musculus [15]; 1.36 mL in data set [16]; 2.97 ×10⁷ /ml in data set [17]; 1.4 mL in data set [18]. Further, the Activity worked out at 17.65 ×10³ /mm3 in the data set on Mus musculus [19]; 6.43 mg/dL with Mus musculus [20]; 41.06 IU/L in the data set on Mus musculus [21]; 7.09 g% in the data set on Mus musculus [22]; 4.77 mg/dL in the data set on Mus musculus [23]; 55.1 IU/L in the data set on Mus musculus [24]. For the same compound, the concentration for half-maximal inhibition (IC50) in the data set on MCF7 was determined as 22.5 µg/mL (≈ 94.9 µM); with HeLa, 23.6 µg/mL (≈ 99.6 µM); with NCI-H460, 20.4 µg/mL (≈ 86.2 µM). Also, the outcome with Ehrlich was Active.
For the compound `Cc1noc2cc3c(nc12)[nH]c1ccc(Br)cc13`, the IC50 in the data set with MCF7 is 60.4 µg/mL (≈ 200 µM); in the data set on HeLa, 61.1 µg/mL (≈ 202 µM); with NCI-H460, 63.2 µg/mL (≈ 209 µM).
For `Cc1noc2cc3c(nc12)[nH]c1ccc(Cl)cc13`, the IC50 with MCF7 was determined as 49.1 µg/mL (≈ 190 µM); in the data set with HeLa, 49.3 µg/mL (≈ 191 µM); in the data set on NCI-H460 it was 36.4 µg/mL (≈ 141 µM).
For `Cc1noc2cc3c(nc12)[nH]c1ccccc13`, the half-inhibitory concentration (IC50) worked out at 53.4 µg/mL (≈ 239 µM) in the data set on MCF7, 54.5 µg/mL (≈ 244 µM) in the data set on HeLa and 49.2 µg/mL (≈ 221 µM) in the data set with NCI-H460.
For `COc1ccc2[nH]c3nc4c(C)noc4cc3c2c1`, in that order: 46.5 µg/mL (≈ 184 µM), 48.3 µg/mL (≈ 191 µM) and 45.2 µg/mL (≈ 178 µM).
For `Cc1noc2cc3c(nc12)[nH]c1ccc(F)cc13`, the values for the concentration for half-maximal inhibition (IC50) in the data set with MCF7, in the data set on HeLa and in the data set on NCI-H460 were 51.3 µg/mL (≈ 213 µM), 50.5 µg/mL (≈ 209 µM) and 52.4 µg/mL (≈ 217 µM), respectively.
